The inhibition is the drop in the measured response relative to a control, in per cent. The EC50 is the midpoint of the concentration-response curve. Higher therefore signals lower potency in that assay.

Each structure is given as a SMILES string. Structures can show the parent of a compound that is named as a salt.

Results on 34 molecules are retold here after patent US7550456B2, “Substituted aryl cycloalkanoyl derivatives and methods of their use” (Wyeth, priority 2003, dated 2009).

The target of one assay is T1, human hNET (Homo sapiens, UniProt P23975).
T1 construct: expressed in transfected cells; host or cells: MDCK-Net6 (MDCK cells, stably transfected)
T1 sequence (P23975 whole entry): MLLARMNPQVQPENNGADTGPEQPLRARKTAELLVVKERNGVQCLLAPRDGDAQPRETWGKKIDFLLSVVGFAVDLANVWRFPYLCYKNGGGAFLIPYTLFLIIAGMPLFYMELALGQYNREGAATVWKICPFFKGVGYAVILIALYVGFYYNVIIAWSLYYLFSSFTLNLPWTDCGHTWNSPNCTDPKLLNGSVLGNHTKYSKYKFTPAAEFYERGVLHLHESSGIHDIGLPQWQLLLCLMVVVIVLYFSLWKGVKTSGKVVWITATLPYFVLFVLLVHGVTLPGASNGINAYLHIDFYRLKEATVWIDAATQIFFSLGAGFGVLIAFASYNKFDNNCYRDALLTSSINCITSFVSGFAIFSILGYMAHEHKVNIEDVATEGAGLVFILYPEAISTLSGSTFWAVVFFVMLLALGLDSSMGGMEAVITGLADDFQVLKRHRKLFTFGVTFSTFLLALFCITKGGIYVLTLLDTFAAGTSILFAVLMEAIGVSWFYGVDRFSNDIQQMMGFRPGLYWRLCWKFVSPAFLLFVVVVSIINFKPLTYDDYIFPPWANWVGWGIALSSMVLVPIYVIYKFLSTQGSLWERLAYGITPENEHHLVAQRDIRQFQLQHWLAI
Nature of the assay: Norepinephrine (NE) uptake assay in MDCK-Net6 cells. The following applies: 1 μM test compound, [3H]NE uptake, read-out: % Inhibition @ 1 μM (hNET). The format is cell-based. The gist of the method: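 Radiolabelled NE uptake was counted by scintillation after NaOH lysis, with 1 µM desipramine defining non-specific uptake. EC50 came from a logistic dose-response fit.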
Regarding `OC1(C(CN2CCNCC2)c2ccc(Oc3cccc4ccccc34)cc2)CCCCC1` (stereo not shown) [Example 389, 1-{1-[4-(1-naphthyloxy)phenyl]-2-piperazin-1-ylethyl}cyclohexanol dihydrochloride], the inhibition at 1 µM came to 16%.

For the molecule `COc1cc(C(CN2CCNCC2)C2(O)CCCCC2)cc(Br)c1OCc1ccccc1` (stereo not shown) [Example 390, 1-{1-[4-(benzyloxy)-3-bromo-5-methoxyphenyl]-2-piperazin-1-ylethyl}cyclohexanol dihydrochloride], the inhibition at 1 µM stood at 6%.

In the case of `COc1cc(C(CN2CCN(C)CC2)C2(O)CCCCC2)cc(Br)c1OCc1ccccc1` (stereo not shown) [Example 391, 1-[1-[4-(benzyloxy)-3-bromo-5-methoxyphenyl]-2-(4-methylpiperazin-1-yl)ethyl]cyclohexanol dihydrochloride], the inhibition at 1 µM came out at 30%.

Consider `OC1(C(CN2CCNCC2)c2cc(Br)c(OCc3ccccc3)c(Br)c2)CCCCC1` (stereo not shown) [Example 392, 1-{1-[4-(benzyloxy)-3,5-dibromophenyl]-2-piperazin-1-ylethyl}cyclohexanol dihydrochloride], for which the inhibition at 1 µM was found to be 68%.

In the case of `CN1CCN(CC(c2cc(Br)c(OCc3ccccc3)c(Br)c2)C2(O)CCCCC2)CC1` (stereo not shown) [Example 393, 1-[1-[4-(benzyloxy)-3,5-dibromophenyl]-2-(4-methylpiperazin-1-yl)ethyl]cyclohexanol dihydrochloride], the inhibition at 1 µM was 59%.

As for `C[C@@H]1CCC(O)(C(CN2CCNCC2)c2cccc(OC(F)(F)F)c2)C1` (stereo partly drawn) [Example 394, (3R)-3-methyl-1-{2-piperazin-1-yl-1-[3-(trifluoromethoxy)phenyl]ethyl}cyclopentanol dihydrochloride], the inhibition at 1 µM came out at 35%.

With `C[C@@H]1CCC(O)(C(CN2CCN(C)CC2)c2cccc(OC(F)(F)F)c2)C1` (stereo partly drawn) [Example 395, (3R)-3-methyl-1-{2-(4-methylpiperazin-1-yl)-1-[3-(trifluoromethoxy)phenyl]ethyl}cyclopentanol dihydrochloride], the inhibition at 1 µM was found to be 92%.

Take `CC1(C)CCCC1(O)C(CN1CCNCC1)c1cccc(OC(F)(F)F)c1` (stereo not shown) [Example 396, 2,2-dimethyl-1-{2-piperazin-1-yl-1-[3-(trifluoromethoxy)phenyl]ethyl}cyclopentanol dihydrochloride]: the inhibition at 1 µM turned out to be 33%.

For the molecule `CN1CCN(CC(c2ccc(Oc3cccc4ccccc34)cc2)C2(O)CCCCC2)CC1` (stereo not shown) [Example 399, 1-{2-(4-methylpiperazin-1-yl)-1-[4-(1-naphthyloxy)phenyl]ethyl}cyclohexanol dihydrochloride], the inhibition at 1 µM was determined as 17%.

Consider `Oc1ccc(C(CN2CCNCC2)C2(O)CCCCC2)cc1OC(F)(F)F` (stereo not shown) [Example 400, 4-[1-(1-hydroxycyclohexyl)-2-piperazin-1-ylethyl]-2-(trifluoromethoxy)phenol dihydrochloride], for which the inhibition at 1 µM worked out at 38%.

In the case of `CN1CCN(CC(c2ccc(O)c(OC(F)(F)F)c2)C2(O)CCCCC2)CC1` (stereo not shown) [Example 401, 4-[1-(1-hydroxycyclohexyl)-2-(4-methylpiperazin-1-yl)ethyl]-2-(trifluoromethoxy)phenol dihydrochloride], the inhibition at 1 µM was determined as 25%.

In the case of `COc1ccc(C(CN2CCNCC2)C2(O)CCCCC2)cc1OC(F)(F)F` (stereo not shown) [Example 402, 1-{1-[4-methoxy-3-(trifluoromethoxy)phenyl]-2-piperazin-1-ylethyl}cyclohexanol dihydrochloride], the inhibition at 1 µM was found to be 42%.

For `CCOc1ccc(C(CN2CCNCC2)C2(O)CCCCC2)cc1OC(F)(F)F` (stereo not shown) [Example 404, 1-{1-[4-ethoxy-3-(trifluoromethoxy)phenyl]-2-piperazin-1-ylethyl}cyclohexanol dihydrochloride], the inhibition at 1 µM stood at 42%.

`CCOc1ccc(C(CN2CCN(C)CC2)C2(O)CCCCC2)cc1OC(F)(F)F` (stereo not shown) [Example 405, 1-[1-[4-ethoxy-3-(trifluoromethoxy)phenyl]-2-(4-methylpiperazin-1-yl)ethyl]cyclohexanol dihydrochloride]: the inhibition at 1 µM was determined as 27%.

With `CC(C)COc1ccc(C(CN2CCNCC2)C2(O)CCCCC2)cc1OC(F)(F)F` (stereo not shown) [Example 406, 1-{1-[4-isobutoxy-3-(trifluoromethoxy)phenyl]-2-piperazin-1-ylethyl}cyclohexanol dihydrochloride], the inhibition at 1 µM turned out to be 22%.

In the case of `CC(C)COc1ccc(C(CN2CCN(C)CC2)C2(O)CCCCC2)cc1OC(F)(F)F` (stereo not shown) [Example 407, 1-[1-[4-isobutoxy-3-(trifluoromethoxy)phenyl]-2-(4-methylpiperazin-1-yl)ethyl]cyclohexanol dihydrochloride], the inhibition at 1 µM was 12%.

As to `OC1(C(CN2CCNCC2)c2ccc(CCc3ccccc3)cc2)CCCCC1` (stereo not shown) [Example 409, 1-{1-[4-(2-phenylethyl)phenyl]-2-piperazin-1-ylethyl}cyclohexanol dihydrochloride], the inhibition at 1 µM worked out at 62%.

With `CN1CCN(CC(c2ccc(CCc3ccccc3)cc2)C2(O)CCCCC2)CC1` (stereo not shown) [Example 410, 1-{2-(4-methylpiperazin-1-yl)-1-[4-(2-phenylethyl)phenyl]ethyl}cyclohexanol dihydrochloride], the inhibition at 1 µM worked out at 51%.

Take `OC1(C(CN2CCNCC2)c2ccc(OCc3ccccc3)c(F)c2)CCCCC1` (stereo not shown) [Example 413, 1-{1-[4-(benzyloxy)-3-fluorophenyl]-2-piperazin-1-ylethyl}cyclohexanol dihydrochloride]: the inhibition at 1 µM amounted to 76%.

On to `CN1CCN(CC(c2ccc(OCc3ccccc3)c(F)c2)C2(O)CCCCC2)CC1` (stereo not shown) [Example 414, 1-{1-[4-(benzyloxy)-3-fluorophenyl]-2-(4-methylpiperazin-1-yl)ethyl}cyclohexanol dihydrochloride], for which the inhibition at 1 µM is 96%.

As to `OC1(C(CN2CCNCC2)c2ccc(OCc3ccc(C(F)(F)F)cc3)c(F)c2)CCCCC1` (stereo not shown) [Example 415, 1-[1-(3-fluoro-4-{[4-(trifluoromethyl)benzyl]oxy}phenyl)-2-piperazin-1-ylethyl]cyclohexanol dihydrochloride], the inhibition at 1 µM stood at 84%.

For `CN1CCN(CC(c2ccc(OCc3ccc(C(F)(F)F)cc3)c(F)c2)C2(O)CCCCC2)CC1` (stereo not shown) [Example 416, 1-[1-(3-fluoro-4-{[4-(trifluoromethyl)benzyl]oxy}phenyl)-2-(4-methylpiperazin-1-yl)ethyl]cyclohexanol dihydrochloride], the inhibition at 1 µM is 91%.

Take `Cc1ccc(COc2ccc(C(CN3CCNCC3)C3(O)CCCCC3)cc2F)cc1` (stereo not shown) [Example 417, 1-(1-{3-fluoro-4-[(4-methylbenzyl)oxy]phenyl}-2-piperazin-1-ylethyl)cyclohexanol dihydrochloride]: the inhibition at 1 µM came out at 78%.

Take `Cc1ccc(COc2ccc(C(CN3CCN(C)CC3)C3(O)CCCCC3)cc2F)cc1` (stereo not shown) [Example 418, 1-[1-(3-fluoro-4-{[4-(methyl)benzyl]oxy}phenyl)-2-(4-methylpiperazin-1-yl)ethyl]cyclohexanol dihydrochloride]: the inhibition at 1 µM was 71%.

For `OC1(C(CN2CCNCC2)c2ccc(OCc3ccc(C(F)(F)F)cc3)c(Cl)c2)CCCCC1` (stereo not shown) [Example 419, 1-[1-(3-chloro-4-{[4-(trifluoromethyl)benzyl]oxy}phenyl)-2-piperazin-1-ylethyl]cyclohexanol dihydrochloride], the inhibition at 1 µM turned out to be 46%.

In the case of `CN1CCN(CC(c2ccc(OCc3ccc(C(F)(F)F)cc3)c(Cl)c2)C2(O)CCCCC2)CC1` (stereo not shown) [Example 420, 1-[1-(3-chloro-4-{[4-(trifluoromethyl)benzyl]oxy}phenyl)-2-(4-methylpiperazin-1-yl)ethyl]cyclohexanol dihydrochloride], the inhibition at 1 µM was 68%.

Consider `OC1(C(CN2CCNCC2)c2ccc(OCc3ccccc3C(F)(F)F)c(Cl)c2)CCCCC1` (stereo not shown) [Example 421, 1-[1-(3-chloro-4-{[2-(trifluoromethyl)benzyl]oxy}phenyl)-2-piperazin-1-ylethyl]cyclohexanol dihydrochloride], for which the inhibition at 1 µM turned out to be 59%.

Regarding `CN1CCN(CC(c2ccc(OCc3ccccc3C(F)(F)F)c(Cl)c2)C2(O)CCCCC2)CC1` (stereo not shown) [Example 422, 1-[1-(3-chloro-4-{[2-(trifluoromethyl)benzyl]oxy}phenyl)-2-(4-methylpiperazin-1-yl)ethyl]cyclohexanol dihydrochloride], the inhibition at 1 µM turned out to be 20%.

On to `OC1(C(CN2CCNCC2)c2ccc(OCc3cccc(C(F)(F)F)c3)c(Cl)c2)CCCCC1` (stereo not shown) [Example 423, 1-[1-(3-chloro-4-{[3-(trifluoromethyl)benzyl]oxy}phenyl)-2-piperazin-1-ylethyl]cyclohexanol dihydrochloride], for which the inhibition at 1 µM was found to be 79%.

`CN1CCN(CC(c2ccc(OCc3cccc(C(F)(F)F)c3)c(Cl)c2)C2(O)CCCCC2)CC1` (stereo not shown) [Example 424, 1-[1-(3-chloro-4-{[3-(trifluoromethyl)benzyl]oxy}phenyl)-2-(4-methylpiperazin-1-yl)ethyl]cyclohexanol dihydrochloride]: the inhibition at 1 µM stood at 75%.

As to `OC1(C(CN2CCNCC2)c2ccc(OCc3ccc(Br)cc3F)c(Cl)c2)CCCCC1` (stereo not shown) [Example 425, 1-(1-{4-[(4-bromo-2-fluorobenzyl)oxy]-3-chlorophenyl}-2-piperazin-1-ylethyl)cyclohexanol dihydrochloride], the inhibition at 1 µM came to 80%.

Still in this assay, the particulars now being: [3H]NE uptake, test range 1 to 10,000 nM.
Take `CN1CCN(CC(c2ccc(OCc3ccccc3)c(OC(F)(F)F)c2)C2(O)CCCCC2)CC1` (stereo not shown) [Example 408, 1-[1-[4-(benzyloxy)-3-(trifluoromethoxy)phenyl]-2-(4-methylpiperazin-1-yl)ethyl]cyclohexanol dihydrochloride]: the EC50 amounted to 398 nM.

With `CN1CCN(C[C@H](c2ccc(OCc3ccccc3)cc2)C2(O)CCCCC2)CC1` [Example 411, 1-[(2S)-1-[4-(benzyloxy)phenyl]-2-(4-methylpiperazin-1-yl)ethyl]cyclohexanol dihydrochloride], the EC50 is 483 nM.

Regarding `CN1CCN(C[C@@H](c2ccc(OCc3ccccc3)cc2)C2(O)CCCCC2)CC1` [Example 412, 1-[(2R)-1-[4-(benzyloxy)phenyl]-2-(4-methylpiperazin-1-yl)ethyl]cyclohexanol dihydrochloride], the midpoint of the response, the EC50, lay at 138 nM.
